Measurements reported in US20230085307A1, “PYRIDAZINONE COMPOUND AND HERBICIDE” (NISSAN CHEMICAL CORPORATION, priority 2019, published 2023).

Legend:
[1] = test system: late watergrass; assay: Test Example 1: herbicidal activity, application before weed generation under submerged conditions (Table 16, symbol A); format: in vivo, late watergrass (Echinochloa oryzicola)
Outline: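 Submerged Wagner pots (alluvial soil, 4 cm water) sown with weed seeds and planted with 2.5-leaf rice seedlings; emulsifiable concentrate diluted in water applied to water surface on sowing day. Held in greenhouse at 25-30 °C; injury scored 0-5 by herbicidal rate after three weeks.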

[2] = test system: late watergrass; assay: Test Example 2: herbicidal activity, application during weed generation under submerged conditions (Table 17, symbol A); format: in vivo, late watergrass (Echinochloa oryzicola); conditions: application during weed generation, submerged conditions
Outline: (§1)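 Alluvial soil in Wagner pots was flooded to 4 cm depth and sown with the three weeds together; pots were kept in a greenhouse at 25° C. to 30° C. At the one to two leaf stage, an emulsion formulation diluted in water to a set rate went onto the water surface; scored three weeks later.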

[3] = test system: Japanese bulrush; assay: Test Example 2: herbicidal activity, application during weed generation under submerged conditions (Table 17, symbol B); format: in vivo, Japanese bulrush (Schoenoplectus juncoides); conditions: application during weed generation, submerged conditions
Outline: as §1

[4] = test system: oval-leafed pondweed; assay: Test Example 2: herbicidal activity, application during weed generation under submerged conditions (Table 17, symbol C); format: in vivo, oval-leafed pondweed (Monochoria vaginalis); conditions: application during weed generation, submerged conditions
Outline: as §1

[5] = test system: barnyard grass; assay: Test Example 3: herbicidal effect by foliage application, Wagner pot (Table 18, symbol H); format: in vivo, barnyard grass (Echinochloa crus-galli)
Outline: (§2)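 Plants were sown in alluvial soil held under 0.1–0.5 cm standing water and grown 14 days in a greenhouse at 25–30 °C. An emulsifiable formulation, water-diluted to the set dose, was then sprayed onto the foliage, and effects were scored three weeks later using previously defined criteria.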

[6] = test system: rice flat sedge; assay: Test Example 3: herbicidal effect by foliage application, Wagner pot (Table 18, symbol E); format: in vivo, rice flat sedge (Cyperus iria)
Outline: as §2

[7] = test system: green foxtail; assay: Test Example 4: herbicidal effect by soil treatment (Table 19, symbol G); format: in vivo, green foxtail (Setaria viridis)
Outline: (§3)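 Step 1: sow seeds in sterilized diluvial soil, cover ~1.5 cm. Step 2: spray diluted emulsion onto soil surface at predetermined rate. Step 3: greenhouse, 25–30° C, three weeks. Step 4: grade effect on each plant by earlier criteria.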

[8] = test system: Italian ryegrass; assay: Test Example 4: herbicidal effect by soil treatment (Table 19, symbol K); format: in vivo, Italian ryegrass (Lolium multiflorum)
Outline: as §3

[9] = test system: windgrass; assay: Test Example 4: herbicidal effect by soil treatment (Table 19, symbol L); format: in vivo, windgrass (Apera spica-venti)
Outline: as §3

[10] = test system: chickweed; assay: Test Example 4: herbicidal effect by soil treatment (Table 19, symbol P); format: in vivo, common chickweed (Stellaria media)
Outline: as §3

[11] = test system: persian speedwell; assay: Test Example 4: herbicidal effect by soil treatment (Table 19, symbol R); format: in vivo, Persian speedwell (Veronica persica)
Outline: as §3

[12] = test system: southern crabgrass; assay: Test Example 5: herbicidal effect by foliage application, plastic box (Table 20, symbol F); format: in vivo, southern crabgrass (Digitaria ciliaris); conditions: foliage application, three weeks after application
Outline: (§4)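 Foliar spray test: emulsion formulation diluted in water to a set application rate, sprayed onto 14-day-old plants raised in diluvial soil at 25° C to 30° C under glass. Both herbicidal effect and crop effect rated visually three weeks later.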

[13] = test system: green foxtail; assay: Test Example 5: herbicidal effect by foliage application, plastic box (Table 20, symbol G); format: in vivo, green foxtail (Setaria viridis); conditions: foliage application, three weeks after application
Outline: as §4

[14] = test system: Italian ryegrass; assay: Test Example 5: herbicidal effect by foliage application, plastic box (Table 20, symbol K); format: in vivo, Italian ryegrass (Lolium multiflorum); conditions: foliage application, three weeks after application
Outline: as §4

[15] = test system: windgrass; assay: Test Example 5: herbicidal effect by foliage application, plastic box (Table 20, symbol L); format: in vivo, windgrass (Apera spica-venti); conditions: foliage application, three weeks after application
Outline: as §4

[16] = test system: lambsquarters; assay: Test Example 5: herbicidal effect by foliage application, plastic box (Table 20, symbol O); format: in vivo, lambsquarters (Chenopodium album); conditions: foliage application, three weeks after application
Outline: as §4

[17] = test system: persian speedwell; assay: Test Example 5: herbicidal effect by foliage application, plastic box (Table 20, symbol R); format: in vivo, Persian speedwell (Veronica persica); conditions: foliage application, three weeks after application
Outline: as §4

[18] = amount of applied herbicide 323 g/ha
[19] = amount of applied herbicide 320 g/ha

For CCCC(=O)Oc1c(C)nn(C)c(=O)c1-c1c(-c2ccccc2OCC)sc2cc(OCC)ccc12 [3-094], the “Herbicidal effect, A: late watergrass” value [1, 18] was 5 (Herbicidal rate of 90% or more (almost completely withered)), the “herbicidal effect rating, A: late watergrass” value ([2]; AAH 323 g/ha) was 3 (Herbicidal rate of 40% or more and less than 70%) and the “herbicidal effect rating, B: Japanese bulrush” value (“herbicidal effect rating, B” below) ([3]; AAH 323 g/ha) was 4 (Herbicidal rate of 70% or more and less than 90%). The “herbicidal effect rating, C: oval-leafed pondweed” value (“herbicidal effect rating, C” below) ([4]; AAH 323 g/ha) was 4 (Herbicidal rate of 70% or more and less than 90%), the “herbicidal effect on barnyard grass (H)” value ([5]; 323 g/ha) was 5 (Herbicidal rate of 90% or more (almost completely withered)) and the “herbicidal effect on rice flat sedge (E)” value ([6]; 323 g/ha) was 5 (Herbicidal rate of 90% or more (almost completely withered)). The “G: green foxtail, herbicidal effect grade” value (“G: green foxtail” below) [7, 18] was 3 (Herbicidal rate of 40% or more and less than 70%), the “K: Italian ryegrass, herbicidal effect grade” value (“K: Italian ryegrass” below) [8, 18] was 4 (Herbicidal rate of 70% or more and less than 90%) and the “L: windgrass, herbicidal effect grade” value [9, 18] was 4 (Herbicidal rate of 70% or more and less than 90%). The “P: chickweed, herbicidal effect grade” value [10, 18] was 4 (Herbicidal rate of 70% or more and less than 90%), the “R: persian speedwell, herbicidal effect grade” value (shortened to “R: persian speedwell”) [11, 18] was 5 (Herbicidal rate of 90% or more (almost completely withered)) and the “F: southern crabgrass, herbicidal effect grade” value (from here on “F: southern crabgrass”) ([12]; 323 g/ha) was 4 (Herbicidal rate of 70% or more and less than 90%). The “G: green foxtail” value ([13]; 323 g/ha) was 4 (Herbicidal rate of 70% or more and less than 90%), the “K: Italian ryegrass” value ([14]; 323 g/ha) was 3 (Herbicidal rate of 40% or more and less than 70%) and the “L: windgrass, herbicidal effect grade” value ([15]; 323 g/ha) was 5 (Herbicidal rate of 90% or more (almost completely withered)). For the same molecule, the “O: lambsquarters, herbicidal effect grade” value (from here on “O: lambsquarters”) ([16]; 323 g/ha) was 4 (Herbicidal rate of 70% or more and less than 90%) and the “R: persian speedwell” value ([17]; 323 g/ha) was 5 (Herbicidal rate of 90% or more (almost completely withered)).
CCCC(=O)Oc1c(C)nn(C)c(=O)c1-c1c(-c2ccc(F)cc2OCC)sc2cc(OCC)ccc12 [3-096] was tested, and the “Herbicidal effect, A: late watergrass” value [1, 19] was 5 (Herbicidal rate of 90% or more (almost completely withered)), the “herbicidal effect rating, A: late watergrass” value ([2]; AAH 320 g/ha) was 4 (Herbicidal rate of 70% or more and less than 90%) and the “herbicidal effect rating, B” value ([3]; AAH 320 g/ha) was 5 (Herbicidal rate of 90% or more (almost completely withered)). The “herbicidal effect rating, C” value ([4]; AAH 320 g/ha) was 4 (Herbicidal rate of 70% or more and less than 90%), the “herbicidal effect on barnyard grass (H)” value ([5]; 320 g/ha) was 5 (Herbicidal rate of 90% or more (almost completely withered)) and the “herbicidal effect on rice flat sedge (E)” value ([6]; 320 g/ha) was 5 (Herbicidal rate of 90% or more (almost completely withered)). The “G: green foxtail” value [7, 19] was 4 (Herbicidal rate of 70% or more and less than 90%), the “K: Italian ryegrass” value [8, 19] was 2 (Herbicidal rate of 20% or more and less than 40%) and the “L: windgrass, herbicidal effect grade” value [9, 19] was 5 (Herbicidal rate of 90% or more (almost completely withered)). For the same molecule, the “P: chickweed, herbicidal effect grade” value [10, 19] was 5 (Herbicidal rate of 90% or more (almost completely withered)), the “R: persian speedwell” value [11, 19] was 5 (Herbicidal rate of 90% or more (almost completely withered)) and the “F: southern crabgrass” value ([12]; 320 g/ha) was 5 (Herbicidal rate of 90% or more (almost completely withered)). For the same molecule, the “G: green foxtail” value ([13]; 320 g/ha) was 4 (Herbicidal rate of 70% or more and less than 90%), the “K: Italian ryegrass” value ([14]; 320 g/ha) was 3 (Herbicidal rate of 40% or more and less than 70%) and the “L: windgrass, herbicidal effect grade” value ([15]; 320 g/ha) was 5 (Herbicidal rate of 90% or more (almost completely withered)). For the same molecule, the “O: lambsquarters” value ([16]; 320 g/ha) was 5 (Herbicidal rate of 90% or more (almost completely withered)) and the “R: persian speedwell” value ([17]; 320 g/ha) was 5 (Herbicidal rate of 90% or more (almost completely withered)).
In the case of CCCOc1ccc2c(-c3c(O)c(C)nn(C)c3=O)c(-c3ccccc3OCC)sc2c1 [3-103], the “Herbicidal effect, A: late watergrass” value [1, 19] is reported as 5 (Herbicidal rate of 90% or more (almost completely withered)), the “herbicidal effect rating, A: late watergrass” value ([2]; AAH 320 g/ha) is reported as 2 (Herbicidal rate of 20% or more and less than 40%) and the “herbicidal effect rating, B” value ([3]; AAH 320 g/ha) is reported as 3 (Herbicidal rate of 40% or more and less than 70%). For the same molecule, the “herbicidal effect rating, C” value ([4]; AAH 320 g/ha) was 3 (Herbicidal rate of 40% or more and less than 70%), the “herbicidal effect on barnyard grass (H)” value ([5]; 320 g/ha) was 4 (Herbicidal rate of 70% or more and less than 90%) and the “herbicidal effect on rice flat sedge (E)” value ([6]; 320 g/ha) was 5 (Herbicidal rate of 90% or more (almost completely withered)). For the same molecule, the “G: green foxtail” value [7, 19] was 4 (Herbicidal rate of 70% or more and less than 90%), the “K: Italian ryegrass” value [8, 19] was 5 (Herbicidal rate of 90% or more (almost completely withered)) and the “L: windgrass, herbicidal effect grade” value [9, 19] was 5 (Herbicidal rate of 90% or more (almost completely withered)). The “P: chickweed, herbicidal effect grade” value [10, 19] was 5 (Herbicidal rate of 90% or more (almost completely withered)), the “R: persian speedwell” value [11, 19] was 5 (Herbicidal rate of 90% or more (almost completely withered)) and the “F: southern crabgrass” value ([12]; 320 g/ha) was 5 (Herbicidal rate of 90% or more (almost completely withered)). For the same molecule, the “G: green foxtail” value ([13]; 320 g/ha) was 5 (Herbicidal rate of 90% or more (almost completely withered)), the “K: Italian ryegrass” value ([14]; 320 g/ha) was 5 (Herbicidal rate of 90% or more (almost completely withered)) and the “L: windgrass, herbicidal effect grade” value ([15]; 320 g/ha) was 4 (Herbicidal rate of 70% or more and less than 90%). The “O: lambsquarters” value ([16]; 320 g/ha) was 4 (Herbicidal rate of 70% or more and less than 90%) and the “R: persian speedwell” value ([17]; 320 g/ha) was 5 (Herbicidal rate of 90% or more (almost completely withered)).
In the case of C=CCOc1ccc2c(-c3c(O)c(C)nn(C)c3=O)c(-c3ccccc3OC)sc2c1 [3-111], the “Herbicidal effect, A: late watergrass” value [1, 19] is reported as 5 (Herbicidal rate of 90% or more (almost completely withered)), the “herbicidal effect rating, A: late watergrass” value ([2]; AAH 320 g/ha) is reported as 4 (Herbicidal rate of 70% or more and less than 90%) and the “herbicidal effect rating, B” value ([3]; AAH 320 g/ha) is reported as 3 (Herbicidal rate of 40% or more and less than 70%). The “herbicidal effect rating, C” value ([4]; AAH 320 g/ha) was 3 (Herbicidal rate of 40% or more and less than 70%), the “herbicidal effect on barnyard grass (H)” value ([5]; 320 g/ha) was 5 (Herbicidal rate of 90% or more (almost completely withered)) and the “herbicidal effect on rice flat sedge (E)” value ([6]; 320 g/ha) was 5 (Herbicidal rate of 90% or more (almost completely withered)). For the same molecule, the “G: green foxtail” value [7, 19] was 5 (Herbicidal rate of 90% or more (almost completely withered)), the “K: Italian ryegrass” value [8, 19] was 5 (Herbicidal rate of 90% or more (almost completely withered)) and the “L: windgrass, herbicidal effect grade” value [9, 19] was 0 (Herbicidal rate of 5% or less (almost no effect)). For the same molecule, the “P: chickweed, herbicidal effect grade” value [10, 19] was 3 (Herbicidal rate of 40% or more and less than 70%), the “R: persian speedwell” value [11, 19] was 5 (Herbicidal rate of 90% or more (almost completely withered)) and the “F: southern crabgrass” value ([12]; 320 g/ha) was 5 (Herbicidal rate of 90% or more (almost completely withered)). For the same molecule, the “G: green foxtail” value ([13]; 320 g/ha) was 5 (Herbicidal rate of 90% or more (almost completely withered)), the “K: Italian ryegrass” value ([14]; 320 g/ha) was 5 (Herbicidal rate of 90% or more (almost completely withered)) and the “L: windgrass, herbicidal effect grade” value ([15]; 320 g/ha) was 5 (Herbicidal rate of 90% or more (almost completely withered)). For the same molecule, the “O: lambsquarters” value ([16]; 320 g/ha) was 5 (Herbicidal rate of 90% or more (almost completely withered)) and the “R: persian speedwell” value ([17]; 320 g/ha) was 5 (Herbicidal rate of 90% or more (almost completely withered)).
